Measurements reported in ChEMBL document CHEMBL1154530, “Pyridyl-pyrimidine benzimidazole derivatives as potent, selective, and orally bioavailable inhibitors of Tie-2 kinase” (Bioorg Med Chem Lett, 2009).
Activity calls are given as the source filed them. The rule behind the calls is not given here.

Key:
Angiopoietin-1 receptor [1] = molecular target: T1, Angiopoietin-1 receptor (Homo sapiens, UniProt Q02763); experiment: Inhibition of Tie2
[2] = molecular target: Vascular endothelial growth factor receptor 2 (Homo sapiens, UniProt P35968); experiment: Inhibition of KDR
[3] = Inhibition of JNK
Angiopoietin-1 receptor [4] = molecular target: T1, Angiopoietin-1 receptor; experiment: Inhibition of Tie2 autophosphorylation in human Ea.hy926 cells; type: cell-based
Aurora kinase A = molecular target: T2, Aurora kinase A (Homo sapiens, UniProt O14965); experiment: Inhibition of Aurora A
T2 sequence (O14965 whole entry): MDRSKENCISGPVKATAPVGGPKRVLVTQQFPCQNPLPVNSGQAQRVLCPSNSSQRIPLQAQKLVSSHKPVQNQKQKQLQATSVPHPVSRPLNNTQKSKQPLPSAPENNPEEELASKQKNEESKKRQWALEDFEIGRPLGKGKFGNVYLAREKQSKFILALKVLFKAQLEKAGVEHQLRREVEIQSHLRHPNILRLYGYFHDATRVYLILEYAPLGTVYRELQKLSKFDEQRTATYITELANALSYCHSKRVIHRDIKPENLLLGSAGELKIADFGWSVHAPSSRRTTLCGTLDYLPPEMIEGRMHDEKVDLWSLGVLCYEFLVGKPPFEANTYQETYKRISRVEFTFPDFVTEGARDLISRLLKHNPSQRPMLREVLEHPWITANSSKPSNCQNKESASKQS

Aurora kinase B = Aurora kinase B (Homo sapiens, UniProt Q96GD4); experiment: Inhibition of Aurora B
[5] = Inhibition of Aurora kinase in human HeLa cells assessed as induction of >=4N DNA content; type: cell-based
[6] = Clearance in Sprague-Dawley rat at 0.5 mg/kg, iv; type: ADME, organism-based; parameters: dose 0.5 mg/kg, route intravenous; conditions: in vivo
[7] = Volume of distribution at steady state in Sprague-Dawley rat at 0.5 mg/kg, iv; type: ADME, organism-based; parameters: dose 0.5 mg/kg, route intravenous; conditions: in vivo, read-out: Vdss
[8] = Half life in Sprague-Dawley rat at 0.5 mg/kg, iv; type: ADME, organism-based; parameters: dose 0.5 mg/kg, route intravenous; conditions: in vivo
[9] = Oral bioavailability in Sprague-Dawley rat at 5 mg/kg; type: ADME, organism-based; conditions: in vivo
Mus musculus [10] = experiment: Inhibition of human angiopoietin-1-stimulated Tie2 phosphorylation in po dosed mouse lung tissue model; type: functional, organism-based
Mus musculus [11] = experiment: Inhibition of human angiopoietin-1-stimulated Tie2 phosphorylation in mouse lung tissue model at >=30 mg/kg, po; type: functional, organism-based
Mus musculus [12] = experiment: Inhibition of human angiopoietin-1-stimulated Tie2 phosphorylation in mouse lung tissue model at 10 mg/kg, po; type: functional; parameters: scale not given: the % may be the effect or the level left
Mus musculus [13] = experiment: Plasma concentration in mouse at 10 mg/kg, po; type: ADME, organism-based; parameters: dose 10 mg/kg, route oral; conditions: in vivo
[14] = Protein binding in mouse plasma; type: ADME, cell-free; conditions: read-out: PPB (converted)
Plasma = experiment: Unbound concentration in mouse plasma

Vascular endothelial growth factor receptor 2, sequence (P35968 whole entry): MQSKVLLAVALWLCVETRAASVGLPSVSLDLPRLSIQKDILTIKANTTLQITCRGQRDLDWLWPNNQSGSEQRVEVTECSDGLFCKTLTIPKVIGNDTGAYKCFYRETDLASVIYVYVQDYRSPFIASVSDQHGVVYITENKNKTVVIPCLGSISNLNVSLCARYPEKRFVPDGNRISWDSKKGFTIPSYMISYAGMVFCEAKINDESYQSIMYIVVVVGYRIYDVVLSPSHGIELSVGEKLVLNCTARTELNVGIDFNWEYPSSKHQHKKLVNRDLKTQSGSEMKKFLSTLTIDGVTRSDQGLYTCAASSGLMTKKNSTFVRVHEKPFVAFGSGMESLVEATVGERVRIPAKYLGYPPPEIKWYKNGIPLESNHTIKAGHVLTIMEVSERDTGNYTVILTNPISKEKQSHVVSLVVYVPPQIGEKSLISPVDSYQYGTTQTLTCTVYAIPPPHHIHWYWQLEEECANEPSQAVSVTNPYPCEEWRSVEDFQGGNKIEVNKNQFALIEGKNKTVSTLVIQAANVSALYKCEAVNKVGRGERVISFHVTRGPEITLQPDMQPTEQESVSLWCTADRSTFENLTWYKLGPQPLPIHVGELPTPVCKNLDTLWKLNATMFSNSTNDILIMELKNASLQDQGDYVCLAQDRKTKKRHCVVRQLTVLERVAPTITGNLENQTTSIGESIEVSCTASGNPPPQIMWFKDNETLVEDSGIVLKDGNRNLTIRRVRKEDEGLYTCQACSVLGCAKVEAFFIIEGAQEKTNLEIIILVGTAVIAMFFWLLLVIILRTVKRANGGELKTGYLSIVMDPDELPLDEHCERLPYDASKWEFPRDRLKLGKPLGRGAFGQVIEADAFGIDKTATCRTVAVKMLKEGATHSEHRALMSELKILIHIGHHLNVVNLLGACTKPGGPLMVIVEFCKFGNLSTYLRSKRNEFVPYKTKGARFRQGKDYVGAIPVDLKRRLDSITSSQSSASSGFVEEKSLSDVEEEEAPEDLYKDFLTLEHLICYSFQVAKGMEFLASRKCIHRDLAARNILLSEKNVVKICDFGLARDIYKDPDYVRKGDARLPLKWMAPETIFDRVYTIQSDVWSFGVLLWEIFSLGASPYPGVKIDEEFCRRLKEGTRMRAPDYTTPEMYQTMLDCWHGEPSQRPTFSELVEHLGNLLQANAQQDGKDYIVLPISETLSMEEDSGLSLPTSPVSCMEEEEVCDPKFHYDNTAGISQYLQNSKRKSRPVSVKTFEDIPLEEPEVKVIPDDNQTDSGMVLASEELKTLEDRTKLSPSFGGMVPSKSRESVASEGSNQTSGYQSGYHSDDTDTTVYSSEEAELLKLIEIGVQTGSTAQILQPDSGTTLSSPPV
T1 sequence (Q02763 whole entry): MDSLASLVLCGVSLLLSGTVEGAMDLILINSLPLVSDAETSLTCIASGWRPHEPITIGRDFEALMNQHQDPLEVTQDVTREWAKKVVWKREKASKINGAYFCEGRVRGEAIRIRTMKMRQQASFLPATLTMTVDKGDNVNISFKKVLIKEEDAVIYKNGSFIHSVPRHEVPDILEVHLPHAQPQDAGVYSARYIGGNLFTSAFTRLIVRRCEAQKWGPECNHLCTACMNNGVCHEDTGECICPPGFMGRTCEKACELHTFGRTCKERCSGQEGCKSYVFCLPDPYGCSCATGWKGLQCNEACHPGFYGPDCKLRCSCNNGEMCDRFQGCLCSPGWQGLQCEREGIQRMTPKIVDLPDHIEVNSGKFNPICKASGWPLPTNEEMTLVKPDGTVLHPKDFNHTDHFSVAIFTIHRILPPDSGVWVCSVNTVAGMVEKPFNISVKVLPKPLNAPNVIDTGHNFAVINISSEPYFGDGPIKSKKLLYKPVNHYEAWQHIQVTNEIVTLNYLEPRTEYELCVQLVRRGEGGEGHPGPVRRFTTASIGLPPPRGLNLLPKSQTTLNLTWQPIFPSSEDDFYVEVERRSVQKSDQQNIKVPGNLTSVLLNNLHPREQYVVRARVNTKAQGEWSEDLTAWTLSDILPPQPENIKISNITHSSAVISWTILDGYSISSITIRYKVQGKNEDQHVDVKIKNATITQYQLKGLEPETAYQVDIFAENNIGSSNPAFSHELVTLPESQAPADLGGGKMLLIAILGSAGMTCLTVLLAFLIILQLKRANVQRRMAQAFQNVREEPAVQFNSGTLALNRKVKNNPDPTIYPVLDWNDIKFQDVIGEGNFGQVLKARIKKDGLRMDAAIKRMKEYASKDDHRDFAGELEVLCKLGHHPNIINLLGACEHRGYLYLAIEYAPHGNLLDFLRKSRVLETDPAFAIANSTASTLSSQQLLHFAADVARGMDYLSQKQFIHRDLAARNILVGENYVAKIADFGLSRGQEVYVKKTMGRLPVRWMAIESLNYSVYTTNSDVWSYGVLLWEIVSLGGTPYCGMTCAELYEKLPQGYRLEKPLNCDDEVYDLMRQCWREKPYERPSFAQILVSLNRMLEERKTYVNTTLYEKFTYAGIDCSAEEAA
Aurora kinase B, sequence (Q96GD4 whole entry): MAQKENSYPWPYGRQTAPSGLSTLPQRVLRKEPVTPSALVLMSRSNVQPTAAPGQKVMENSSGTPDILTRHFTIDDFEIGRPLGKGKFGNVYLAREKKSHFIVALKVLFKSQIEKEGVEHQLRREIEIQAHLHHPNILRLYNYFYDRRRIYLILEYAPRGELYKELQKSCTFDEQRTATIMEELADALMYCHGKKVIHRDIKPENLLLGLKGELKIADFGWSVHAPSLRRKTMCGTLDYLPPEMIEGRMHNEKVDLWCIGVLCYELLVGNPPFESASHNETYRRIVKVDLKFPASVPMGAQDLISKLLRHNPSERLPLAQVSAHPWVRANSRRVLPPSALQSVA

IC50 (Angiopoietin-1 receptor [1])	IC50 [2]	Structure (SMILES)	other results
240 nM	250 nM	CNc1nccc(-c2cccnc2Oc2ccc(Nc3nc4ccccc4n3C)c3ccccc23)n1	
470 nM	6000 nM	CNc1nccc(-c2cccnc2Oc2ccc(Nc3nc4ccc(C(F)(F)F)cc4[nH]3)cc2C)n1	
44 nM	88 nM	CNc1nccc(-c2cccnc2Oc2ccc(Nc3nc4ccccc4s3)c3ccccc23)n1	
16 nM	30 nM	CNc1nccc(-c2cccnc2Oc2ccc(Nc3nc4ccccc4o3)c3ccccc23)n1	
250 nM	> 25000 nM	CNc1nccc(-c2cccnc2Oc2ccc(Nc3nc4ccccc4[nH]3)cc2)n1	
1 nM	1400 nM	CNc1nccc(-c2cccnc2Oc2ccc(Nc3nc4ccccc4[nH]3)c3ccccc23)n1	EC50 [3]: < 100 nM; IC50 (Angiopoietin-1 receptor [4]): 20 nM; IC50 (Aurora kinase A): 19 nM; IC50 (Aurora kinase B): 10 nM; IC50 [5]: 120 nM
	34 nM	CNc1nccc(-c2cccnc2Oc2ccc(NC(=O)Nc3cccc(C(F)(F)F)c3)cc2C)n1	
590 nM	> 25000 nM	CNc1nccc(-c2cccnc2Oc2ccc(Nc3nc4ccccc4[nH]3)c(C)c2)n1	
27 nM	69 nM	CNc1nccc(-c2cccnc2Oc2ccc(Nc3nc4cc(C(F)(F)F)ccc4[nH]3)c3ccccc23)n1	
110 nM	1570 nM	CNc1nccc(-c2cccnc2Oc2ccc(Nc3nc4c(C)cccc4[nH]3)c3ccccc23)n1	
5 nM	40 nM	CNc1nccc(-c2cccnc2Oc2ccc(NC(=O)Nc3ccccc3)c3ccccc23)n1	
310 nM	> 25000 nM	CNc1nccc(-c2cccnc2Oc2ccc(Nc3nc4ccccc4[nH]3)c(C)c2C)n1	
	> 5000 nM	CNc1nccc(-c2cccnc2Oc2c(C)cc(Nc3nc4ccccc4[nH]3)c3ccccc23)n1	IC50 (Aurora kinase A): 28 nM; IC50 (Aurora kinase B): 80 nM; IC50 [5]: > 1200 nM; clearance [6]: 28 mL/min/kg; Vd [7]: 5.9 L/kg; half-life [8]: 222 min; bioavailability [9]: 26%; Activity (Mus musculus [10]): Dose-dependent effect; Activity (Mus musculus [11]): Active; Activity (Mus musculus [12]): 50%; concentration (Mus musculus [13]): 260 nM; fraction unbound [14]: 0.004; unbound plasma concentration (Plasma): 1 nM
23 nM	> 25000 nM	CNc1nccc(-c2cccnc2Oc2ccc(Nc3nc4ccccc4[nH]3)cc2C)n1	IC50 (Angiopoietin-1 receptor [4]): 250 nM
460 nM	7600 nM	CNc1nccc(-c2cccnc2Oc2ccc(NC(=O)Nc3ccccc3)cc2C)n1	
